Data published in patent US9834525B2, “Inhibitors of paxillin function and related compositions and methods” (UNIVERSITY OF TENNESSEE RESEARCH FOUNDATION, priority 2015, dated 2017).
Entries after “also recorded” stand apart in the source; their conditions may differ. Read-outs that look alike come from different tables or passages of the source.

Assays:
Type in all cases: cell-based, human
[1] = test system: paxillin (pY118); experiment: Western blot of VEGF-induced paxillin Y118 phosphorylation in REC
Method: (§1) REC, Mel 270, OMM 2.5 under Hepatocyte Growth Factor (HGF) or Vascular Endothelial Growth Factor (VEGF) stimulation conditions: Cell lysates were collected in RIPA lysis buffer (50 mM Tris-HCl, pH 7.4, 150 mM NaCl, 2 mM EDTA, 1% Nonidet P-40, 0.1% SDS) with protease 1× inhibitor cocktail (Roche; Indianapolis, Ind.). Lysates were kept on ice and centrifuged at 10,000×g×10 minutes and total protein was measured using the BCA assay (Pierce, Rockford, Ill.). Protein samples were mixed with 4×LDS loading buffer with 2.5% 2-mercaptoethanol (Sigma-Aldrich), heated to 70° C. for 10 minutes, and loaded on NuPAGE 4-12% Bis-Tris gel (Invitrogen, Carlsbad, Calif.). Immunoblotting was performed with nitrocellulose membranes (Bio-Rad, Hercules, Calif.) at 170-mA start and 110-mA end at 25 V for two hours in NuPAGE transfer buffer (Invitrogen) containing 20% methanol. Membranes were blocked using Odyssey blocking buffer (LI-COR; Lincoln, Nebr.) for one hour at room temperature with gentle shaking Membranes were then incubated at 4° C. with specific primary antibodies (1:1000) overnight. Cellular protein was normalized using rabbit-GAPDH or mouse-α-Tubulin [1:20,000] (Cell Signaling, Danvers, Mass.; LI-COR, respectively). Secondary antibodies (IRDye 800CW goat anti-rabbit and IRDye 680LT goat anti-mouse) [1:10,000] were incubated in the dark at room temperature for 45 minutes. Dual-channel infrared scan and quantitation of immunoblots were conducted using the ODYSSEY Sa infrared imaging system with Image Studio (Ver. 3.1.4) (LI-COR).
The α4 subunit of the cytoplasmic tail of VLA-4 interacts with the cytoskeletal adaptor paxillin, merging intracellular signaling events that drive cellular proliferation and migration (FIG. 13). Compound (II-4) inhibits phosphorylation of paxillin at Y118 (pY118) in the LD-region that interacts with the α4 subunit of VLA-4. To confirm the inhibition of pY118 of paxillin after use of compound (II-4) retinal endothelial cells (REC) were activated with Vascular Endothelial Growth Factor (VEGF) at 50 ng/mL in the presence or absence (vehicle) of compound (II-4) at a concentration of […] for 4-hrs. […] VEGF-induced pY118 was prevented by treatment with compound (II-4) [VEGF-REC treatment versus untreated, *p<0.005; VEGF-induced versus compound (II-4) treatment, **p<0.05—FIG. 13C].
To gain insight into the mechanistic basis for this phenotype, the effect of compound (II-4) on the Src/FAK/paxillin/ERK signalsome in RECs under VEGF was examined. […] Next, characterization of the potential of compound (II-4) to affect FA disassembly through inactivation of ERK was explored. […]
FIG. 13: Targeting the alpha-4 subunit of VLA-4 signaling through inhibition of paxillin. […] Phosphorylation measured by Western Blot. […]

[2] = test system: retinal endothelial cells (REC); experiment: REC scratch-wound assay, VEGF-induced migration; conditions: for IC50: Homo sapiens, Endothelial cell
Method: RECs were wounded and treated with VEGF (20 ng/mL) and either compound (II-4) (1 μM) or vehicle. Compound (II-4) reduced migration by ˜10-fold when measured 24 hrs post-scratch. (*P<0.001; n=6).
Two methods of evaluating VEGF-induced REC migration were used to assess the impact of compound (II-4) on paxillin-mediated migration: the scratch assay and the transwell (Boyden chamber) cell migration assay. To test if paxillin inhibition would reduce VEGF-induced REC migration, RECs were wounded and treated with VEGF ([…]) +/− compound (II-4) ([…]). Wound closure was monitored by phase microscopy over 24 hours and area of wound closure was calculated using the sophisticated image analysis tools in Adobe Photoshop. Cells were then fixed and nuclei were stained using DAPI to show extent of cell migration.
FIG. 2: REC scratch-wound assay. RECs were wounded and treated with VEGF (20 ng/mL) and either compound (II-4) (1 μM) or vehicle. Compound (II-4) reduced migration by ˜10-fold when measured 24 hrs post-scratch. (*P<0.001; n=6)
FIG. 17: REC migration. A) Increasing concentrations of compound (II-4) inhibit VEGF-induced migration in a scratch wound assay; [Serum Free-control, VEGF (100 ng/mL), VEGF+100 nM, 500 nM, 10 μM, 100 μM] (IC50≈180 ηM; n=6/group). Cells were stained with DAPI for representative images. B) RECs seeded onto transwell membranes were stimulated with VEGF+ vehicle or compound (II-4) for 24 hrs. Cells were removed from the topside of membrane and migrated cells were stained with DAPI [Serum-Free (SF), VEGF, +100, +500 nM, respectively]. Cell number was measured using fluorescence microscopy. All data are mean±SD (*, # P<0.001)

[3] = test system: UM tumor cell lines; experiment: Total cell numbers in UM cultures
[4] = test system: ERK1/2; experiment: Western blot of VEGF-induced ERK1/2 phosphorylation in REC; conditions: REC under VEGF; compound (II-4) 500 nM, SU6656 1 μM
Method: as §1, with “Secondary antibodies (IRDye 800CW goat anti-rabbit and IRDye 680LT goat anti-mouse) [1:10,000] were incubated in the dark at room temperature for 45 minutes.” left out, “(LI-COR). […]” for “(LI-COR).”

IC50 ([2]; VEGF (100 ng/mL), n=6/group, read-out: IC50, inhibition of VEGF-induced migration in scratch wound assay): ~180 nM | IC50 ([2]; wound closure at 24 hours, VEGF (100 μg/mL), compound 100 μM to 10 μM as printed, read-out: IC50, inhibition of VEGF-induced REC migration (wound closure)): 181 nM
Structure (SMILES): COc1cc(C2OC(=O)Nc3c2ccc2ccccc32)cc(OC)c1OC (stereo not shown) [compound II-4]
VEGF-induced PaxY118 phosphorylation (FIG. 20) ([1]; REC under VEGF, compound (II-4) 500 nM, SU6656 1 μM): able to inhibit; also recorded: reduced | VEGF-induced paxillin phosphorylation (pY118) ([1]; REC, VEGF 50 ng/mL, 4 hrs, inhibitor 1 μM (printed 104)): prevented; also recorded: reduced | reduction of migration in REC scratch-wound assay ([2]; VEGF (20 ng/mL), compound (II-4) 1 μM vs vehicle, 24 hrs post-scratch): ~10 fold | total cell numbers compared to untreated cultures [3]: reduction in total cell numbers | VEGF-dependent ERK1/2 phosphorylation [4]: No significant change; also recorded: Neither SU6656 nor compound (II-4) decreased
